Values of other authors in patent publication US20230074252A1, “DOSAGES AND METHODS FOR TREATING PULMONARY ARTERIAL HYPERTENSION WITH RODATRISTAT” (Altavant Sciences GmbH, priority 2020, published 2023).

Experiments:
[1] = human, in vivo; cited from earlier work
[2] = oral; cited from earlier work
prostacyclin receptor = prostacyclin receptor (Homo sapiens, UniProt P43119); conditions: cited from earlier work
[3] = cited from earlier work; for Change in exposure on coadministration with clopidogrel: selexipag + clopidogrel (moderate inhibitor); for Increase in exposure (AUC) on coadministration with gemfibrozil: selexipag + gemfibrozil (strong CYP2C8 inhibitor); for Increase in exposure on coadministration with ritonavir: selexipag + ritonavir
CYP2C8 = target: T1, CYP2C8 (Homo sapiens, UniProt P10632); conditions: literature; cited from earlier work
T1 sequence (P10632 1-490): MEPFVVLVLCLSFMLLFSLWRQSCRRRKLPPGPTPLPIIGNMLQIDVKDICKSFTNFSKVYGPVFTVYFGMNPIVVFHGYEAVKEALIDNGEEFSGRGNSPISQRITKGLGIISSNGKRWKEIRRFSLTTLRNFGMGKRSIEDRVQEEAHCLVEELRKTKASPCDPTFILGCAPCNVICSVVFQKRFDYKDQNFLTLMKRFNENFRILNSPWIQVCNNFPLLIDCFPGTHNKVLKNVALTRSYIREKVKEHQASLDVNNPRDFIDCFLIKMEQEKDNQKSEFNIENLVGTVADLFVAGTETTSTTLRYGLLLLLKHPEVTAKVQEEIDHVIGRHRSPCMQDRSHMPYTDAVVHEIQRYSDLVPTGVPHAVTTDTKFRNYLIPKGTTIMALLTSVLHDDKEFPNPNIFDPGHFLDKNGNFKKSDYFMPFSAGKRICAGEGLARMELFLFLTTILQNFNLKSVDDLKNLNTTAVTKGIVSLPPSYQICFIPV

Chain of prostacyclin receptor (P43119 whole entry, species assumed): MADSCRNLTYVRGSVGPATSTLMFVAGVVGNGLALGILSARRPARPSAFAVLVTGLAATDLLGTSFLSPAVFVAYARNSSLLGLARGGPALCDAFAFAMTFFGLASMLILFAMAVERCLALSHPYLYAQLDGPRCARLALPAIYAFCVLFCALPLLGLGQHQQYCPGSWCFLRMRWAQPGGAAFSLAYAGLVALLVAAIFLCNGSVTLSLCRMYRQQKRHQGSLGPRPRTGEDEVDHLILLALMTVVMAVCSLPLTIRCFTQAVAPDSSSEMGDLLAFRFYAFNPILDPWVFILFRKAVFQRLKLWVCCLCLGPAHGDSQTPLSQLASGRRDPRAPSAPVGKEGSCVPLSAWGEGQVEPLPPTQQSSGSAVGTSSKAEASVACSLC

CCCCC[C@H](O)CC[C@@H]1[C@H]2Cc3cccc(OCC(=O)O)c3C[C@H]2C[C@H]1O.[Na+] [treprostinil, (1R,2R,3aS,9aS)-[[2,3,3a,4,9,9a-Hexahydro-2-hydroxy-1-[(3S)-3-hydroxyoctyl]-1Hbenz[f]inden-5-yl]oxy]acetic acid monosodium salt]
Increase in AUC on coadministration with gemfibrozil [1]: ~2 fold | Increase in Cmax on coadministration with gemfibrozil [1]: ~2 fold | Bioavailability [2]: ~17%

CC(C)N(CCCCOCC(=O)O)c1cnc(-c2ccccc2)c(-c2ccccc2)n1 [ACT-333679]
Potency relative to selexipag (prostacyclin receptor): approximately 37 fold | Change in exposure on coadministration with clopidogrel [3]: 2.7 fold | Increase in exposure (AUC) on coadministration with gemfibrozil [3]: 11 fold | Increase in exposure on coadministration with ritonavir [3]: < 2 fold

CC(C)N(CCCCOCC(=O)NS(C)(=O)=O)c1cnc(-c2ccccc2)c(-c2ccccc2)n1 [selexipag]
Change in exposure on coadministration with clopidogrel [3]: did not impact | Increase in exposure (AUC) on coadministration with gemfibrozil [3]: 2 fold | Increase in exposure on coadministration with ritonavir [3]: ~2 fold

O=C1Nc2ccc(Cl)cc2[C@@](C#CC2CC2)(C(F)(F)F)O1 [efavirenz]
IC50 (CYP2C8): 4.8 µM
